# Results taken from article PMC9743128, “Phenotype-based screening rediscovered benzopyran-embedded microtubule inhibitors as anti-neuroinflammatory agents by modulating the tubulin–p65 interaction” (Experimental & Molecular Medicine, 2022).
# Tests used:
# [1] = test system: TNF-α secretion in BV-2 cells; experiment: TNF-α ELISA of culture medium after LPS; format: cell-based, murine; conditions: 10 μM
# Procedure: BV-2 and RAW264.7 cells were treated with compounds in the absence or presence of LPS (100 ng/ml). After 24 h, TNF-α levels in the culture medium were measured using a TNF-α ELISA kit (R&D Systems; DY410) according to the manufacturer’s protocol. Briefly, capture antibodies were coated on 96-well Maxisorp Nunc-Immuno plates (Thermo; #439454) for 1 h and washed with PBS containing 0.05% Tween-20 (PBST) three times. The plates were blocked with 1% BSA-PBS for 1 h and washed with PBST three times. Culture medium was added to the 96-well plate for 1 h and washed with PBST three times. Biotinylated detection antibody was added to the 96-well plate for 1 h and washed with PBST three times. Streptavidin–horseradish peroxidase (HRP) was added to the plate for 20 min and washed with PBST three times. After 20 min of incubation with TMB substrate (Thermo; #002023), TMB oxidation was stopped by adding 2 N H2SO4. The absorbance at 450 nm, 540 nm, and 570 nm was measured using a microplate reader (BioTek; Synergy). The following formula was used to calculate the net signal: OD450nm–(OD540nm + OD570nm)/2.
# Fig. 2 SB26019 has anti-inflammatory activity via the accumulation of tubulin monomers. SB26019 (10 μM for 6 h) regulated the mRNA levels (a) and protein levels (b) of downstream genes of NF-κB in BV-2 murine microglial cells more efficiently than the other known tubulin modulators (n = 3). c Both tubulin modulators (10 μM for 6 h) and transient Flag-tagged α-tubulin overexpression increased the total amount of tubulin monomers. d Quantification of the amount of tubulin polymer vs. monomer in (c). Tubulin modulators (10 μM for 6 h) and transient Flag-tagged α-tubulin overexpression proportionally regulated the NF-κB signaling pathway at the mRNA (e) and protein levels f in RAW264.7 murine macrophage cells (n = 3). Data are presented as the mean ± SD (ns, not significant, p > 0.05; *p < 0.05; **p < 0.01; ***p < 0.001).
# [2] = test system: p65 nuclear translocation in J774A.1 and RAW264.7 cells; experiment: p65 nuclear translocation by immunofluorescence staining; format: cell-based, murine; conditions: 10 μM for 1 h, then LPS; LPS alone 80%, basal 40%
# Procedure: To monitor p65 translocation, J774A.1 cells were treated with compounds for 1 h, followed by LPS (100 ng/ml) treatment for 30 min. The cells were fixed with 4% paraformaldehyde (Sigma; #158127) in PBS (w/v) for 30 min at room temperature. After washing with 1× PBS (Welgene; ML008-02) three times, the fixed cells were permeabilized with PBS containing 0.1% Triton X-100 for 10 min. The cells were washed with 1× PBS three times and then blocked with 4% bovine serum albumin (MP Biomedicals; #0216006980) in PBS (w/v) for 1 h. The cells were incubated with mouse anti-p65 antibody (Santa Cruz; sc-8008, 1:200 diluted in 1% BSA–PBS) at 4 °C overnight and washed with PBS three times. FITC-labeled goat anti-mouse IgG antibody (Abcam; ab6785, 1:200 diluted in 1% BSA–PBS) was added to the sample and incubated for 1 h at room temperature. The remaining antibodies were finally washed three times with PBS. Nuclei were stained with Hoechst 33342 (Thermo; #62249). The cellular p65 proteins were imaged by fluorescence microscopy (GE Healthcare; Delta Vision) and quantified by the line profiling method.
# During activation of the NF-κB signaling pathway, IκB is phosphorylated and degraded by proteasomes. The released p65 from IκB is translocated to the nucleus, inducing the transcription of target genes for inflammatory responses. Therefore, we monitored the translocation of p65 upon SB26019 treatment in J774A.1 and RAW264.7 murine macrophage cells stained with fluorescently labeled antibodies. […]
# tubulin = target: T1, tubulin (Sus scrofa, UniProt P02550+P02554); experiment: Tubulin polymerization assay; format: biochemical; conditions: 1 μM compound
# T1 construct: purchased Cytoskeleton BK006P
# T1 sequence (P02554 whole entry): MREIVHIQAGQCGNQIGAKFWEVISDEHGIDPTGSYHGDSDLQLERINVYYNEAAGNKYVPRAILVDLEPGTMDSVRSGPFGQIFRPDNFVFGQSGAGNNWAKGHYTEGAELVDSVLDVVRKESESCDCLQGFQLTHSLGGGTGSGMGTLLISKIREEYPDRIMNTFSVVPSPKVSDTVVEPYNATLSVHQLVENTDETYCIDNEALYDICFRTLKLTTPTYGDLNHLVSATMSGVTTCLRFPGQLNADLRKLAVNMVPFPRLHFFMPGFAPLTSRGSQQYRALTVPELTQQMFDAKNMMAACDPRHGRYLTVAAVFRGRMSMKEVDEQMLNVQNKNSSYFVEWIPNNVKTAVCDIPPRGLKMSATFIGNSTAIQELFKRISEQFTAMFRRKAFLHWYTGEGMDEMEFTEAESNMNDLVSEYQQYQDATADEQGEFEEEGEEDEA
# T1 sequence (P02550 whole entry): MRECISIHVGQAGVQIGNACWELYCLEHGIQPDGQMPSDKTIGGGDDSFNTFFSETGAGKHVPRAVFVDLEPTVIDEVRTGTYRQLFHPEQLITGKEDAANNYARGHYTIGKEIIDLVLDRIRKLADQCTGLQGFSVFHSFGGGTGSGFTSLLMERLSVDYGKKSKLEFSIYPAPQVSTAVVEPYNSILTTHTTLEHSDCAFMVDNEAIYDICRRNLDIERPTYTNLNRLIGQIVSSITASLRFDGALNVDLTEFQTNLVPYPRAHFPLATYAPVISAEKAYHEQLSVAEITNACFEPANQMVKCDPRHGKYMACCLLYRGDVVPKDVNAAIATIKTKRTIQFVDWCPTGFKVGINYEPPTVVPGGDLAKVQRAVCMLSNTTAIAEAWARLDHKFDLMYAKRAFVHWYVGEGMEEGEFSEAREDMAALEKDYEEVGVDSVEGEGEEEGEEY
# Procedure: The tubulin polymerization inhibition efficacy of the compounds was measured by a tubulin polymerization assay kit (Cytoskeleton; BK006P) according to the manufacturer’s manual. Absorbance at 340 nm was measured to observe the formation of tubulin polymers using a microplate reader (Biotek; Synergy).
# Supplementary Fig. 4. Tubulin polymerization inhibition by compounds 1–13 (1 μM). In the presence or absence of compounds, tubulin was incubated to polymerize at room temperature. Absorbance at 340 nm was measured in a time-dependent manner for monitoring the rate of tubulin polymerization.
# Supplementary Table 2. Tubulin polymerization inhibition of the focused library. Tubulin was incubated with each compound (1 μM) and the tubulin polymerization inhibition was monitored. Vmax was calculated from tubulin polymer generation curve data of Supplementary Fig. 3.
# [3] = test system: NF-κB signaling pathway in BV-2 microglial cells; experiment: qPCR of NF-κB downstream genes after LPS; format: cell-based, murine; conditions: BV-2 cells, dose-dependent
# Procedure: After cell lysis with RLT buffer (Qiagen), RNA was extracted using the RNAeasy PLUS Mini Kit (Qiagen; #74136). The resulting cDNA was generated using the AccuPower CycleScript RT PreMix (dT20) kit (Bioneer; K2044) on a C1000 Touch Thermal Cycler (Bio-Rad; #1841000). qPCR was performed using a KAPA SYBR® FAST qPCR Master Mix (2×) Universal Kit (Kapa; KK4605) on a StepOne Real-Time PCR system (Applied Biosystems; #4376357). The cycling threshold value of the endogenous control gene GAPDH was subtracted from the cycling threshold value of each target gene to calculate the shift in cycling threshold (ΔCT). […] The primer sequence information for this analysis is shown in Supplementary Table 3.
# NF-κB is a central mediator that induces proinflammatory cytokines, including TNF-α, IL-1β, IL-6, and chemokines. […] The expression level of the proinflammatory cytokine TNF-α was also monitored with SB26019 treatment.
# Fig. 2 SB26019 has anti-inflammatory activity via the accumulation of tubulin monomers. […]
structure (smiles),measurement,setting,value
COc1ccc2c(c1O)OC(C)(C)C=C2c1cccc2c1oc1ccccc12 [Compound 8],TNF-α levels compared to that of the DMSO control,[1],< 50%
same,p65 nuclear translocation in the presence of LPS,[2],< 60%
same,Vmax of microtubule polymerization compared to DMSO control,tubulin,significantly inhibited tubulin polymerization
same,"mRNA of inflammatory marker genes (Ccl2, Cxcl10, Il-1β, Il-6, Nos2, Tnf)",[3],suppressed the production of inflammatory marker genes
